Test results published in patent US9833518B2, “Heteromultivalent particle compositions” (CASE WESTERN RESERVE UNIVERSITY, priority 2012, dated 2017).

Tests used:
GPIIb-IIIa (αIIbβ3) = GPIIb-IIIa (αIIbβ3) (Homo sapiens, UniProt P05106+P08514); conditions: reported in literature; cited from earlier work
[1] = system: fibrinogen-mediated platelet aggregation; assay: Aggregometry assay of free peptides in platelet-rich plasma; assay type: cell-based, human
Protocol: Affinity of free lRGD and cRGD peptides to bind activated platelets was characterized by ‘half maximal Inhibitory Concentration’ (IC50) value, which, in our assays, was the concentration of peptide required to inhibit fibrinogen-mediated platelet aggregation in platelet-rich plasma (PRP) by 50%, in an aggregometry (Bio/Data, PAP-4) set-up. PRP was prepared from citrated human whole blood by centrifugation at 800 RPM for 15 min at 25° C. 50 μl aliquots of PRP were warmed to 37° C. for 2 minutes, incubated with various concentrations of lRGD and cRGD peptide in the presence of agonist adenosine di-phosphate (ADP, 10 μM) and the maximal aggregation percentage was determined while stifling for 15 min. Consequently, from the maximal aggregation percentage and comparison to aggregation without peptides, inhibition percentage was determined.

Chain of GPIIb-IIIa (αIIbβ3) (P08514 32-887 limits assumed): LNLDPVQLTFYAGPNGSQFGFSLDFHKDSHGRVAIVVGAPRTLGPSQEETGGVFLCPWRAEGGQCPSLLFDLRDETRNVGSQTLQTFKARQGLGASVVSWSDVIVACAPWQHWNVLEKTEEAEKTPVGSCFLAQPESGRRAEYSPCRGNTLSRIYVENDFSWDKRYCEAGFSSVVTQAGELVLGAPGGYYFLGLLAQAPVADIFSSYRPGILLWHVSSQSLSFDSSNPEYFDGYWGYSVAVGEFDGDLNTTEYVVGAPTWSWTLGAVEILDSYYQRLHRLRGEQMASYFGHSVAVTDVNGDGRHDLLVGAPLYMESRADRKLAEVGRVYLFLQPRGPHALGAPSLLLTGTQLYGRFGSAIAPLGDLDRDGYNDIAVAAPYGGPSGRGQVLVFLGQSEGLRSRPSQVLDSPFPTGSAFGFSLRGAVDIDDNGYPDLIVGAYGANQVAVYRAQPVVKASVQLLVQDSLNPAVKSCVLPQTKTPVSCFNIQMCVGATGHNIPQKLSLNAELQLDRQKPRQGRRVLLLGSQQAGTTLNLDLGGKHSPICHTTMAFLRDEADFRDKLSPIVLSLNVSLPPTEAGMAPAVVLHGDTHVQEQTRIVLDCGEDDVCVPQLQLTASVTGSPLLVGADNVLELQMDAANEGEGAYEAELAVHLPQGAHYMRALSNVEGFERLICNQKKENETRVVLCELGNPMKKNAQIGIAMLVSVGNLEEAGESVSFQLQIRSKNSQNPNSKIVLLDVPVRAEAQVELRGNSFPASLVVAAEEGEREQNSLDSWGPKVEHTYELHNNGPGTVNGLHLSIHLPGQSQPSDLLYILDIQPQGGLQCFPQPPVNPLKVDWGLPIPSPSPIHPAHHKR
Chain of GPIIb-IIIa (αIIbβ3) (P08514 891-1039 partner limits assumed): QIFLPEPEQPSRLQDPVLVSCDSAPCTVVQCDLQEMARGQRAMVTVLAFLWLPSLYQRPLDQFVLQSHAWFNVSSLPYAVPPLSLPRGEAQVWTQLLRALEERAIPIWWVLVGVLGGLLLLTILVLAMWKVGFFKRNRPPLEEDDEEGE
Chain of GPIIb-IIIa (αIIbβ3) (P05106 27-788): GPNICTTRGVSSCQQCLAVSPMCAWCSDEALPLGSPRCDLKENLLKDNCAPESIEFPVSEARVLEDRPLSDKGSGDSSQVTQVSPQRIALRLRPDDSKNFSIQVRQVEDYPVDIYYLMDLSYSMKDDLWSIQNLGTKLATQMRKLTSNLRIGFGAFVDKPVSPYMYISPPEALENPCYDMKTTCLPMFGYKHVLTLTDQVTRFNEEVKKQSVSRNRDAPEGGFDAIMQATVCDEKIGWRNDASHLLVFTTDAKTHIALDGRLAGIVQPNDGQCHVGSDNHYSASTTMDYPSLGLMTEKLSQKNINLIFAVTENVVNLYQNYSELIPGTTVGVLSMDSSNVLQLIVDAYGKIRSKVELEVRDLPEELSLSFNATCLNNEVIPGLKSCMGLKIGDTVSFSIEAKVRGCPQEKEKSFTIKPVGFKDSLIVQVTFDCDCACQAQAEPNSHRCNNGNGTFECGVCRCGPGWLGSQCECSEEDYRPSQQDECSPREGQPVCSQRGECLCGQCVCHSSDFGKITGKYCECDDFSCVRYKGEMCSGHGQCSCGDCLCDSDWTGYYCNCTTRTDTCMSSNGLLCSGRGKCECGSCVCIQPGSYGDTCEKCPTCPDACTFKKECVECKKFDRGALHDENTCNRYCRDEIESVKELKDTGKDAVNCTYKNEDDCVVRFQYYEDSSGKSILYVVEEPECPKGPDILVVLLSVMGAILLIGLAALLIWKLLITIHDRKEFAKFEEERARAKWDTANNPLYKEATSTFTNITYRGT

In the case of cyclo-CNPRGDY(-OEt)RC [cRGD], the “affinity and selectivity for GPIIb-IIIa compared with αvβ3, αvβ5 and α5β1” value (GPIIb-IIIa (αIIbβ3)) is listed as “high affinity and selectivity for GPIIb-IIIa”, the “IC50 by aggregometry, lower compared to lRGD” value ([1]; FIG. 18 legend) is listed as ~2 orders of magnitude and the “IC50 (inhibition of platelet aggregation) relative to lRGD” value ([1]; PRP, ADP 10 μM, 37° C.) is listed as “about 1000 times lower”.
